US12522607B2, “Substituted pyrazolo[3,4-d]pyrimidines as wee-1 inhibitors” (WIGEN BIOMEDICINE TECHNOLOGY (SHANGHAI) CO., LTD., priority 2020, dated 2026)

Assays:
[1] = target: T1, Wee-1 kinase (Homo sapiens, UniProt P30291); experiment: Inhibitory activity against Wee-1 kinase (Lanthra Screen Wee-1 kinase kit, Tracer 178); assay type: binding; details: Wee-1 kinase 5 nM, Tracer 178 50 nM, 1 h room temperature
T1 construct: purchased Invitrogen
Method: Example 342. Assay for Inhibitory Activity of Compounds Against Wee-1 Kinase
The inhibitory activity of compounds against Wee-1 kinase was determined by using the Lanthra Screen Wee-1 kinase kit (Invitrogen). 5 μL of the compound diluted in a gradient with DMSO, 5 μL. of Wee-1 kinase (at a final concentration of 5 nM), 5 μL of an Eu-Anti-GST antibody (at a final concentration of 2 nM) mixture and 5 μL of kinase Tracer 178 (at a final concentration of 50 nM) were mixed well. The plate was read after incubation at room temperature for one hour. For comparison with the DMSO solvent control group, IC50 for the inhibition activity of the compounds against Wee-1 kinase was calculated.

[2] = test system: HT29 cells; experiment: Antiproliferative activity against HT29 cells (Cell Titer-Lumi, ATP content); assay type: cell-based; details: Homo sapiens, HT-29, 72 after compound addition, read-out: HT-29 cells Anti-proliferative activity (IC50 for the inhibition against HT-29 cell growth)
Method: Example 343. Assay for Antiproliferative Activity Against HT29 Cells
3000 HT29 cells were seed in a 384-well plate (Fisher 142762). After the cells adhered to the wall overnight, the compounds diluted in a gradient were added. 72 later, Cell Titer-Lumi (Beyotime C0068XL) was added to determine the content of ATP in the cells. The growth of the cells was evaluated, and the IC50 for the inhibition of the compounds against cell growth was calculated.

T1 sequence (P30291 whole entry): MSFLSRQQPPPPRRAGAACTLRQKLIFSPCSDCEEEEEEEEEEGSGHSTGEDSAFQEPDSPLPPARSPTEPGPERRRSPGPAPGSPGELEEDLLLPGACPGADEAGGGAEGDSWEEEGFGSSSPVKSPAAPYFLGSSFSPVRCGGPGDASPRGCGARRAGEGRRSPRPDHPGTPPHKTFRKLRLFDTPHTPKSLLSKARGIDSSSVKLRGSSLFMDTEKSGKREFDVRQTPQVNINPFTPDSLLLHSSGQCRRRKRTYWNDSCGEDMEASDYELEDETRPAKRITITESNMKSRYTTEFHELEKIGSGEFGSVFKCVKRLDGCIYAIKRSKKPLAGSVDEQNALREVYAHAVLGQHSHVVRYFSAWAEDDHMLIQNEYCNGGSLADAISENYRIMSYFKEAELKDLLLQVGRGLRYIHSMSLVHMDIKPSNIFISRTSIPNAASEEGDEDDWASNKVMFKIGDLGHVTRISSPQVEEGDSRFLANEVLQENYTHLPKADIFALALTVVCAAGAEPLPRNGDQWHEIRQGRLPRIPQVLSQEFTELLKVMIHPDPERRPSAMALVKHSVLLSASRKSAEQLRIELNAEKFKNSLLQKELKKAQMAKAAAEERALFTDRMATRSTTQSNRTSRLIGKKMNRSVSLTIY

| Compound | IC50 [1] | IC50 [2] |
| --- | --- | --- |
| C=CCn1c(=O)c2cnc(Nc3ccc(N4CCN(C)CC4)cc3)nc2n1-c1ccc(=O)n(C)n1 [Compound 1, 2-allyl-1-(1-methyl-6-oxo-1,6-dihydropyridazin-3-yl)-6-((4-(4-methylpiperazin-1-yl)phenyl)amino)-1,2-dihydro-3H-pyrazolo[3,4-d]pyrimidin-3-one] | > 100 nM | > 3000 nM |
| C=CCn1c(=O)c2cnc(Nc3ccc(N4CCN(C)CC4)cc3)nc2n1-c1ccc(=O)n(CC)n1 [Compound 2] | > 100 nM | > 3000 nM |
| C=CCn1c(=O)c2cnc(Nc3ccc(N4CCN(C)CC4)cc3)nc2n1-c1ccc(=O)n(CC(C)C)n1 [Compound 4] | 30 to 100 nM | 1000 to 3000 nM |
| C=CCn1c(=O)c2cnc(Nc3ccc(N4CCN(C)CC4)cc3)nc2n1-c1ccc(=O)n(C(C)CC)n1 (centres unmarked) [Compound 5] | ≤ 30 nM | ≤ 1000 nM |
| C=CCn1c(=O)c2cnc(Nc3ccc(N4CCN(C)CC4)cc3)nc2n1-c1ccc(=O)n(CC(C)(C)C)n1 [Compound 6] | 30 to 100 nM | 1000 to 3000 nM |
| C=CCn1c(=O)c2cnc(Nc3ccc(N4CCN(C)CC4)cc3)nc2n1-c1ccc(=O)n(CC(F)F)n1 [Compound 7] | 30 to 100 nM | 1000 to 3000 nM |
| C=CCn1c(=O)c2cnc(Nc3ccc(N4CCN(C)CC4)cc3)nc2n1-c1ccc(=O)n(CC(F)(F)F)n1 [Compound 8] | 30 to 100 nM | 1000 to 3000 nM |
| C=CCn1c(=O)c2cnc(Nc3ccc(N4CCN(C)CC4)cc3)nc2n1-c1ccc(=O)n(C(C)(C)C)n1 [Compound 9] | ≤ 30 nM | ≤ 1000 nM |
| C=CCn1c(=O)c2cnc(Nc3ccc(N4CCN(C)CC4)cc3)nc2n1-c1ccc(=O)n(C(C)(C)C(F)(F)F)n1 [Compound 10] | ≤ 30 nM | ≤ 1000 nM |
| C=CCn1c(=O)c2cnc(Nc3ccc(N4CCN(C)CC4)cc3)nc2n1-c1ccc(=O)n(C2CC2)n1 [Compound 11] | ≤ 30 nM | ≤ 1000 nM |
| C=CCn1c(=O)c2cnc(Nc3ccc(N4CCN(C)CC4)cc3)nc2n1-c1ccc(=O)n(C2CCC2)n1 [Compound 12] | ≤ 30 nM | ≤ 1000 nM |
| C=CCn1c(=O)c2cnc(Nc3ccc(N4CCN(C)CC4)cc3)nc2n1-c1ccc(=O)n(C2CCCC2)n1 [Compound 13] | ≤ 30 nM | ≤ 1000 nM |
| C=CCn1c(=O)c2cnc(Nc3ccc(N4CCN(C)CC4)cc3)nc2n1-c1ccc(=O)n(C2COC2)n1 [Compound 14] | 30 to 100 nM | > 3000 nM |
| C=CCn1c(=O)c2cnc(Nc3ccc(N4CCN(C)CC4)cc3)nc2n1-c1ccc(=O)n(C2CC(F)(F)C2)n1 [Compound 15] | 30 to 100 nM | 1000 to 3000 nM |
| C=CCn1c(=O)c2cnc(Nc3ccc(N4CCN(C)CC4)cc3)nc2n1-c1ccc(=O)n(CC2CC2)n1 [Compound 16] | 30 to 100 nM | 1000 to 3000 nM |
| C=CCn1c(=O)c2cnc(Nc3ccc(N4CCN(C)CC4)cc3)nc2n1-c1ccc(=O)n(CC2CCC2)n1 [Compound 17] | 30 to 100 nM | 1000 to 3000 nM |
| C=CCn1c(=O)c2cnc(Nc3ccc(N4CCN(C)CC4)cc3)nc2n1-c1ccc(=O)n(C(C)(C)CO)n1 [Compound 18] | ≤ 30 nM | 1000 to 3000 nM |
| C=CCn1c(=O)c2cnc(Nc3ccc(N4CCN(C)CC4)cc3)nc2n1-c1ccc(=O)n(C(C)(C)COC)n1 [Compound 19] | ≤ 30 nM | 1000 to 3000 nM |
| C=CCn1c(=O)c2cnc(Nc3ccc(N4CCN(C)CC4)cc3)nc2n1-c1ccc(=O)n(C(C)C)c1 [Compound 20] | ≤ 30 nM | ≤ 1000 nM |
| C=CCn1c(=O)c2cnc(Nc3ccc(N4CCN(C)CC4)cc3)nc2n1-c1ccc(=O)n(C(C)(C)C)c1 [Compound 21] | ≤ 30 nM | ≤ 1000 nM |
| C=CCn1c(=O)c2cnc(Nc3ccc(N4CCN(C)CC4)cc3)nc2n1-c1cc(C)c(=O)n(C(C)C)n1 [Compound 22] | ≤ 30 nM | ≤ 1000 nM |
| C=CCn1c(=O)c2cnc(Nc3ccc(N4CCN(C)CC4)cc3)nc2n1-c1cc(OC)c(=O)n(C(C)C)n1 [Compound 23] | ≤ 30 nM | > 3000 nM |
| C=CCn1c(=O)c2cnc(Nc3ccc(N4CCN(C)CC4)cc3)nc2n1-c1cc(F)c(=O)n(C(C)C)c1 [Compound 24] | ≤ 30 nM | ≤ 1000 nM |
| C=CCn1c(=O)c2cnc(Nc3ccc(N4CCN(C)CC4)cc3)nc2n1-c1cc(C(F)(F)F)c(=O)n(C(C)C)c1 [Compound 25] | ≤ 30 nM | ≤ 1000 nM |
| C=CCn1c(=O)c2cnc(Nc3ccc(N4CCN(C)CC4)cc3)nc2n1-c1cc(C(F)F)c(=O)n(C(C)C)c1 [Compound 26] | ≤ 30 nM | ≤ 1000 nM |
| C=CCn1c(=O)c2cnc(Nc3ccc(N4CCN(C)CC4)cc3)nc2n1-c1cc(OC)c(=O)n(C(C)C)c1 [Compound 27] | 30 to 100 nM | > 3000 nM |

| Compound | IC50 [1] | IC50 [2] |
| --- | --- | --- |
| C=CCn1c(=O)c2cnc(Nc3ccc(N4CCN(C)CC4)cc3)nc2n1-c1cc(C#N)c(=O)n(C(C)C)c1 [Compound 28] | 30 to 100 nM | > 3000 nM |
| C=CCn1c(=O)c2cnc(Nc3ccc(N4CCN(C)CC4)cc3)nc2n1-c1cn(C(C)C)c(=O)cc1C [Compound 29] | ≤ 30 nM | ≤ 1000 nM |
| C=CCn1c(=O)c2cnc(Nc3ccc(N4CCN(C)CC4)cc3)nc2n1-c1cn(C(C)C)c(=O)cc1OC [Compound 30] | 30 to 100 nM | > 3000 nM |
| C=CCn1c(=O)c2cnc(Nc3ccc(N4CCNCC4)cc3)nc2n1-c1ccc(=O)n(C(C)C)n1 [Compound 31] | ≤ 30 nM | ≤ 1000 nM |
| C=CCn1c(=O)c2cnc(Nc3ccc(N4CCN(CC)CC4)cc3)nc2n1-c1ccc(=O)n(C(C)C)n1 [Compound 32] | ≤ 30 nM | ≤ 1000 nM |
| C=CCn1c(=O)c2cnc(Nc3ccc(N4CCN(C5CC5)CC4)cc3)nc2n1-c1ccc(=O)n(C(C)C)n1 [Compound 33] | ≤ 30 nM | ≤ 1000 nM |
| C=CCn1c(=O)c2cnc(Nc3ccc(N4CCN(C5CCC5)CC4)cc3)nc2n1-c1ccc(=O)n(C(C)C)n1 [Compound 34] | ≤ 30 nM | ≤ 1000 nM |
| C=CCn1c(=O)c2cnc(Nc3ccc(N4CCN(C5COC5)CC4)cc3)nc2n1-c1ccc(=O)n(C(C)C)n1 [Compound 35] | ≤ 30 nM | ≤ 1000 nM |
| C=CCn1c(=O)c2cnc(Nc3ccc(N4CCN(C5CCN(C)CC5)CC4)cc3)nc2n1-c1ccc(=O)n(C(C)C)n1 [Compound 36] | ≤ 30 nM | ≤ 1000 nM |
| C=CCn1c(=O)c2cnc(Nc3ccc(N4CCN(CCF)CC4)cc3)nc2n1-c1ccc(=O)n(C(C)C)n1 [Compound 37] | ≤ 30 nM | ≤ 1000 nM |
| C=CCn1c(=O)c2cnc(Nc3ccc(N4CCN(CC(F)F)CC4)cc3)nc2n1-c1ccc(=O)n(C(C)C)n1 [Compound 38] | ≤ 30 nM | ≤ 1000 nM |
| C=CCn1c(=O)c2cnc(Nc3ccc(N4CCN(CC(F)(F)F)CC4)cc3)nc2n1-c1ccc(=O)n(C(C)C)n1 [Compound 39] | ≤ 30 nM | ≤ 1000 nM |
| C=CCn1c(=O)c2cnc(Nc3ccc(N4CCN(CC#N)CC4)cc3)nc2n1-c1ccc(=O)n(C(C)C)n1 [Compound 40] | ≤ 30 nM | ≤ 1000 nM |
| C=CCn1c(=O)c2cnc(Nc3ccc(N4CCNCC4)c(C)c3)nc2n1-c1ccc(=O)n(C(C)C)n1 [Compound 41] | ≤ 30 nM | ≤ 1000 nM |
| C=CCn1c(=O)c2cnc(Nc3ccc(N4CCN(C)CC4)c(C)c3)nc2n1-c1ccc(=O)n(C(C)C)n1 [Compound 42] | ≤ 30 nM | ≤ 1000 nM |
| C=CCn1c(=O)c2cnc(Nc3ccc(N4CCN(C)CC4)c(F)c3)nc2n1-c1ccc(=O)n(C(C)C)n1 [Compound 44] | ≤ 30 nM | ≤ 1000 nM |
| C=CCn1c(=O)c2cnc(Nc3ccc(N4CCNCC4)c(Cl)c3)nc2n1-c1ccc(=O)n(C(C)C)c1 [Compound 45] | ≤ 30 nM | ≤ 1000 nM |
| C=CCn1c(=O)c2cnc(Nc3ccc(N4CCN(C)CC4)c(Cl)c3)nc2n1-c1ccc(=O)n(C(C)C)c1 [Compound 46] | ≤ 30 nM | ≤ 1000 nM |
| C=CCn1c(=O)c2cnc(Nc3ccc(N4CCNCC4)c(OC)c3)nc2n1-c1ccc(=O)n(C(C)C)c1 [Compound 47] | ≤ 30 nM | ≤ 1000 nM |
| C=CCn1c(=O)c2cnc(Nc3ccc(N4CCN(C)CC4)c(OC)c3)nc2n1-c1ccc(=O)n(C(C)C)c1 [Compound 48] | ≤ 30 nM | ≤ 1000 nM |
| C=CCn1c(=O)c2cnc(Nc3ccc(N4CCNCC4)c(C(F)(F)F)c3)nc2n1-c1ccc(=O)n(C(C)C)c1 [Compound 49] | ≤ 30 nM | ≤ 1000 nM |
| C=CCn1c(=O)c2cnc(Nc3ccc(N4CCN(C)CC4)c(C(F)(F)F)c3)nc2n1-c1ccc(=O)n(C(C)C)c1 [Compound 50] | ≤ 30 nM | ≤ 1000 nM |
| C=CCn1c(=O)c2cnc(Nc3ccc(N4CCNCC4)c(CO)c3)nc2n1-c1ccc(=O)n(C(C)C)c1 [Compound 51] | 30 to 100 nM | 1000 to 3000 nM |
| C=CCn1c(=O)c2cnc(Nc3ccc(N4CCN(C)CC4)c(CO)c3)nc2n1-c1ccc(=O)n(C(C)C)n1 [Compound 52] | ≤ 30 nM | 1000 to 3000 nM |
| C=CCn1c(=O)c2cnc(Nc3ccc(N4CCNCC4)c(CC(F)(F)F)c3)nc2n1-c1ccc(=O)n(C(C)C)n1 [Compound 53] | ≤ 30 nM | ≤ 1000 nM |
| C=CCn1c(=O)c2cnc(Nc3ccc(N4CCN(C)CC4)c(CC(F)(F)F)c3)nc2n1-c1ccc(=O)n(C(C)C)n1 [Compound 54] | ≤ 30 nM | ≤ 1000 nM |
